Here are results for two compounds from publication PMC2364024, “Bioavailability and dose-dependent anti-tumour effects of 9-cis retinoic acid on human neuroblastoma xenografts in rat” (British Journal of Cancer, 2001).

For series [1] the following is noted: rat, in vivo; for AUC (area under the curve) / Cmax (concentration maximum) / T1/2 (elimination half-life) / ratio AUC (4-oxo-9-cis RA)/AUC (9 cis RA): 9 mg; for conversion of 9-cis RA to its metabolite (4-oxo-9-cis RA) / ratio AUC (4-oxo-9-cis RA)/AUC (9 cis RA): male, Sprague-Dawley.
Series [2] can be described thus: Pharmacokinetic study of 9-cis RA in rat (plasma HPLC, one-compartment model).
Series [3] concerns human neuroblastoma SH-SY5Y xenografts. Also on record: method as in Ponthan et al, 2001. The conditions noted are these: nude rats, 9-cis RA 5 mg day-1 (once daily); ref Ponthan et al, 2001; cited from earlier work.
Series [4] has the same test system. Description: Neuroblastoma SH-SY5Y xenograft tumour growth in nude rats. The class given is in vivo. The protocol: This increases the importance of finding new therapeutic drugs. […] Two animals were sacrificed at each time point. […] The true tumour weight was recorded at autopsy. […] All treatments were administered with a gastric feeding tube.

The structures appear in SMILES notation. Values joined by “and” are separate entries in the source; they are usually repeats but may differ in a detail not shown here. Equal entries are not always repeated. “Also recorded” adds a separate entry of the source. Where two headings read alike, the source gives them in different places.

Consider `CC1=C(/C=C/C(C)=C\C=C\C(C)=C\C(=O)O)C(C)(C)CCC1=O` [4-oxo-9-cis RA, 4-oxo-9-cis retinoic acid], for which the “formed amount (AUC) of 4-oxo-9-cis RA after i.v. versus p.o. administration” value in series [1] amounted to 2 fold. Also, in series [1] (iv), the “Tmax (time of Cmax)” value came to 188 min, the “AUC (area under the curve)” value was 6295 ng/mL/h, the “Cmax (concentration maximum)” value was found to be 738 ng/mL and the “T1/2 (elimination half-life)” value worked out at 129 min. Moreover, in series [1] (po), the “Tmax (time of Cmax)” value was found to be 275 min, the “AUC (area under the curve)” value came out at 3563 ng/mL/h, the “Cmax (concentration maximum)” value turned out to be 441 ng/mL and the “T1/2 (elimination half-life)” value worked out at 126 min.

As to `CC1=C(/C=C/C(C)=C\C=C\C(C)=C\C(=O)O)C(C)(C)CCC1` [9-cis RA, 9-cis retinoic acid], the “conversion of 9-cis RA to its metabolite (4-oxo-9-cis RA)” value is “about 8%” in series [1] (iv) and 42% in series [1] (po). The “ratio AUC (4-oxo-9-cis RA)/AUC (9 cis RA)” value amounted to 0.08 in series [1] (iv) and 0.42 in series [1] (po). In addition, the “elimination half-life (t1/2)” value in series [2] (9 mg 9-cis RA, p.o. and i.v. taken together) was in the range of 26 to 43 min. The AUC (area under the curve) in series [2] (intravenous administration, 9 mg 9-cis RA) turned out to be 80100 ng·h/mL; in series [2] (oral administration, 9 mg 9-cis RA) it was 8550 ng·h/mL. The Cmax in series [2] (male, Sprague-Dawley, plasma, iv, 9 mg) is 120000 ng/mL; in series [2] (male, Sprague-Dawley, plasma, po, 9 mg), 3000 ng/mL. Besides, the half-life in series [2] (male, Sprague-Dawley, plasma, iv, 9 mg, T1/2 (elimination half-life), intravenous administration, 9 mg 9-cis RA) was 26.4 min; in series [2] (male, Sprague-Dawley, plasma, other: p.o. and i.v. taken together, 9 mg, elimination half-life (t1/2), 9 mg 9-cis RA, p.o. and i.v. taken together), 35 min; in series [2] (male, Sprague-Dawley, plasma, po, 9 mg, T1/2 (elimination half-life), oral administration, 9 mg 9-cis RA) it was 42.6 min. In addition, the bioavailability in series [2] (male, Sprague-Dawley, plasma, oral, 9 mg) worked out at 11%. The “effect on tumour growth” value is given as “significant reduction in tumour growth” in series [3], “no significant effect on tumour growth; also recorded: tumour growth-inhibiting effect was not significant” in series [4] (9-cis RA 2 mg day-1 p.o.) and “only limited effect on tumour growth; also recorded: limited but statisti- cally significant reduction in tumour growth” in series [4] (9-cis RA 2.5 mg p.o. twice daily). The “tumour weight, trend” value in series [4] (2 x 2.5 mg day-1 treated group) is on record as “tendency towards a reduction in tumour weights”. Further, the “tumour weight at sacrifice, median (and range)” value in series [4] (9-cis RA 2 mg day-1 (RA 1), n 10 tumours, 12 days) is 2.79 g and 1.49 to 9.98 g; in series [4] (9-cis RA 2 x 2.5 mg (RA 2), n 3 tumours, 10 days), 1.84 g and 0.92 to 2.95 g. In addition, the “tumour volume compared to control tumours” value in series [4] (9-cis RA 2 mg day-1 p.o., 12 days) is on record as “no significant reduction in tumour volume”. Further, the “tumour volume compared to corresponding controls” value in series [4] (9-cis RA 2.5 mg p.o. twice daily, day 8) is recorded as “not at day 8”. Further, the “tumour weight compared to untreated control tumours” value in series [4] (regardless of treatment schedule (2 mg day-1 or 2.5 mg twice daily), after 10-12 days of therapy) is reported as “no significant reduction in tumour weight”.

As usually defined, the Cmax is the maximum level reached in the sampled fluid or tissue. In general, half-life refers to how long it takes for the measured level to halve. Low readings indicate fast loss, high ones slow loss. A word on the bioavailability: it is dose-corrected exposure relative to a reference, in per cent. A lower bioavailability goes with poor availability.
